The format of data set [1] is in vivo, rat. To be noted: rat, plasma, po, 1 g/kg.
A short description of data set [2]: Sulfate conjugation of opicapone in human liver S9. Type of data set: in vitro ADME. The conditions noted are these: human liver S9 fraction (HLS9), pH 7.4.
Data set [3] in a line: Glucuronidation of opicapone in human liver microsomes. The class given is in vitro ADME. To be noted: human liver microsomes (HLM), pH 7.5.
Another data set has as its target T1, UGT 1A1 (Homo sapiens, UniProt P22309).
T1 sequence (P22309 26-533): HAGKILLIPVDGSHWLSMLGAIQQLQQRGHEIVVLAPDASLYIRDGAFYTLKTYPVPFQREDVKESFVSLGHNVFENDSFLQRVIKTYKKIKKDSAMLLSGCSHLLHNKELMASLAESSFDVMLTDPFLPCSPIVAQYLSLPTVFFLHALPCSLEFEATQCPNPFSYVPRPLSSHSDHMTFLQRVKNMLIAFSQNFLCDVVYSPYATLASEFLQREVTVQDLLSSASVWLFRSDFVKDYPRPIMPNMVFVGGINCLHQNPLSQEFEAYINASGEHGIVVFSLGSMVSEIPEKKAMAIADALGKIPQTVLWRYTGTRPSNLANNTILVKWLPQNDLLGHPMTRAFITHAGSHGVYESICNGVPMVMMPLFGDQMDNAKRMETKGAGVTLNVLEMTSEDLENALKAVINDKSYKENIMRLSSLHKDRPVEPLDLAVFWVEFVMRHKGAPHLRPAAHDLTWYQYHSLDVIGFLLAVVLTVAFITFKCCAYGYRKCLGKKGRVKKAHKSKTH
As to the kind of experiment: Glucuronidation of opicapone by recombinant UGT1A1. To be noted: 20 μM opicapone. Type of data set: in vitro ADME.

The target of the next data set is T2, UGT 1A3 (Homo sapiens, UniProt P35503).
T2 sequence (P35503 29-534): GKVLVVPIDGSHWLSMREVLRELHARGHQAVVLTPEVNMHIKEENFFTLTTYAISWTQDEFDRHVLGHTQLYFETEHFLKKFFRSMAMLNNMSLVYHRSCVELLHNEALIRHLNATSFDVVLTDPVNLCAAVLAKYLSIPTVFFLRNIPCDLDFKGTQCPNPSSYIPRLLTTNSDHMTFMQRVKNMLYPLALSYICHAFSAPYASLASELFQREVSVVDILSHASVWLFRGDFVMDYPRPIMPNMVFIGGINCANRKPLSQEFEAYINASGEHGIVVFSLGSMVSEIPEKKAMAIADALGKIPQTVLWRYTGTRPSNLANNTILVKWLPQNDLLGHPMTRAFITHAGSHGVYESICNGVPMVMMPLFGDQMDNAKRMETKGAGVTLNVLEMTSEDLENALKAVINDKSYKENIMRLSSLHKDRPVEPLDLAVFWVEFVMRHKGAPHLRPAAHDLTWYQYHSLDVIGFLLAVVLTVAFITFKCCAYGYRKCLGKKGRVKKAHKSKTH
Description: Glucuronidation of opicapone by recombinant UGT1A3. The conditions noted are these: 20 μM opicapone. The class given is in vitro ADME.

For another data set, the target named is T3, UGT1A6 (Homo sapiens, UniProt P19224).
T3 sequence (P19224 27-532): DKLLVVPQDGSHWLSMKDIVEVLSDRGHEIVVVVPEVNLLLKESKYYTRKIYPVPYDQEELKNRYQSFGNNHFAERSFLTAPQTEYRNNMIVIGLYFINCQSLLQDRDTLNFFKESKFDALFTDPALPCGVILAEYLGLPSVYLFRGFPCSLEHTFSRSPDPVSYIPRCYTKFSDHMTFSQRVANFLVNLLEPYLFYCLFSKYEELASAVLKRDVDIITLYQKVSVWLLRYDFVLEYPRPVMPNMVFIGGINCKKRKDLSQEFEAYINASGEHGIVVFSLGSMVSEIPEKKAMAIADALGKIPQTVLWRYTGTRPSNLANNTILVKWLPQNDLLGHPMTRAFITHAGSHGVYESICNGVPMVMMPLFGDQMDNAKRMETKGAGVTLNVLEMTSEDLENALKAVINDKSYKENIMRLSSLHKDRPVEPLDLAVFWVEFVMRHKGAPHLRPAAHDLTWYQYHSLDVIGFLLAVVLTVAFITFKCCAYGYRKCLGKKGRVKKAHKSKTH
As to the kind of experiment: Glucuronidation of opicapone by recombinant UGT1A6. The class given is in vitro ADME.

In a further data set the target is T4, UGT 2B7 (Homo sapiens, UniProt P16662).
T4 sequence (P16662 24-529): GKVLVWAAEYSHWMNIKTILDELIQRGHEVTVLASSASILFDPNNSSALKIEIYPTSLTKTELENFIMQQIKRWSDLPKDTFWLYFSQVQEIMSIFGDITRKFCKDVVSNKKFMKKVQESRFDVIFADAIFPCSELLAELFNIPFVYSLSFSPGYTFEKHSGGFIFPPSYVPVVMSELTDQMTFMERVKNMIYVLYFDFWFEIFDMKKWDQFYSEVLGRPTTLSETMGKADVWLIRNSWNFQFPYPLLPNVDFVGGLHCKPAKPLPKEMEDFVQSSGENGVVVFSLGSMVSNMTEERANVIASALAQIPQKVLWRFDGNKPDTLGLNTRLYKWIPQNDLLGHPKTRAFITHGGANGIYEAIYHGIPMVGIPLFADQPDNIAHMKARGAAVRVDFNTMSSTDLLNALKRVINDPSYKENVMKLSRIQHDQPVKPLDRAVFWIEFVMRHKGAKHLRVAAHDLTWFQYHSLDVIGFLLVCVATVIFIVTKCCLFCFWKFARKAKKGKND
Description: Glucuronidation of opicapone by recombinant UGT2B7. To be noted: 20 μM opicapone. Type of data set: in vitro ADME.

In the next data set the target is T5, UGT 2B15 (Homo sapiens, UniProt P54855).
T5 sequence (P54855 24-530): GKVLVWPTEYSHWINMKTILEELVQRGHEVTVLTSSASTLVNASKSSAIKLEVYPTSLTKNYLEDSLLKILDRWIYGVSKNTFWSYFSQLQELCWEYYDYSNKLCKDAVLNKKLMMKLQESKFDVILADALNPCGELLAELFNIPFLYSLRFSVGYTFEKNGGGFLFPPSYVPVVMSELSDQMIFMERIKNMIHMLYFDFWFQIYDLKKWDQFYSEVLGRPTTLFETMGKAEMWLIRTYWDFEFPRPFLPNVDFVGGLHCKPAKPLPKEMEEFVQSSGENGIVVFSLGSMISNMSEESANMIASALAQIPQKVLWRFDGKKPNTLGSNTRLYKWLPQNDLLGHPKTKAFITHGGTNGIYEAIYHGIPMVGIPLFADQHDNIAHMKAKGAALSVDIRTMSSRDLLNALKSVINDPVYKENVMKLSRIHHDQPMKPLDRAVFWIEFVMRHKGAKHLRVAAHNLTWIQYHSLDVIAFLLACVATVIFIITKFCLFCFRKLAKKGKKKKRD
As to the kind of experiment: Glucuronidation of opicapone by recombinant UGT2B15. Type of data set: in vitro ADME. To be noted: 20 μM opicapone.

For data set [4] the following is noted: healthy subjects; oral; cited from earlier work.
The conditions of data set [5]: low solubility compound; ref unpublished information; cited from earlier work.

Each structure is given as a SMILES string.

In data set [1], `Cc1c(Cl)c(C)[n+]([O-])c(Cl)c1-c1noc(-c2cc(O)c(O)c([N+](=O)[O-])c2)n1` [opicapone, 2,5‐dichloro‐3‐(5‐(3,4‐dihydroxy‐5‐nitrophenyl)‐1,2,4‐oxadiazol‐3‐yl)‐4,6‐dimethylpyridine 1‐oxide] returned a Cmax of 7090 ng/mL. Moreover, the Km in [2] worked out at 20.5 ± 2.6 µM; in [3], 27.9 ± 6.4 µM. Besides, the “Formation of BIA 9-1106 (screening)” value on UGT 1A1, on UGT 1A3, on UGT1A6 (20 μM opicapone), at UGT 2B7 and on UGT 2B15 was “little amounts” throughout. Further, the “Glucuronidation kinetics (form of the rate curve)” value on UGT1A6 (opicapone 1 to 250 μM) is recorded as “linear”. Further, the “Apparent terminal elimination half-life (t1/2)” value in data set [4] is 48 to 192 min. Also, the “Biopharmaceutics Classification System class” value in [5] was “class II”.

Source of the values: article PMC8929358 (Pharmacology Research & Perspectives, 2021).
